Measured values taken from patent US20090022803A1, “Oral Formulations For Delivery of Catecholic Butanes Including Ndga Compounds” (priority 2005, published 2009).

Experiment: 40 mg/mL M4N/PEG 300 stability, RP-HPLC analysis
Format: physicochemical
Details: for M4N: 40 mg/mL M4N/PEG 300
Procedure: The stability of 40 mg/mL M4N dissolved in 100% PEG 300 was evaluated up to 24 hours incubation at 30° C., 45° C. and 60° C. A stock 40 mg/mL M4N in PEG 300 was prepared at 60° C., following the procedure set forth in Example 18. Subsequently, aliquots were removed and incubated at the appropriate temperature. Samples were rotated at 450 rpm during the entire course of incubation. Visual observations and RP-HPLC data were collected throughout. […] The formation of crystals coincided with a loss of soluble M4N (Table 30). The 40 mg/mL M4N/PEG 300 samples incubated at 45° C. and 60° C. were stable after 24 hours incubation as assessed by visual observations and RP-HPLC analysis (Tables 29 and 30).

## COc1ccc(C[C@@H](C)[C@@H](C)Cc2ccc(OC)c(OC)c2)cc1OC [Formulation M4N, meso-1,4-bis(3,4-dimethoxyphenyl)-2,3-dimethylbutane]
40 mg/mL M4N/PEG 300, 30° C., 45° C. and 60° C.
  amount or types of impurities peaks: No changes
40 mg/mL M4N/PEG 300, 24 hours at 45° C.
  stability by visual observations and RP-HPLC analysis: stable
40 mg/mL M4N/PEG 300, 24 hours at 60° C.
  stability by visual observations and RP-HPLC analysis: stable
30° C., 0 hours
  M4N: 39.5 mg/mL
30° C., 2 hours
  M4N: 40.8 mg/mL
30° C., 6 hours
  M4N: 40.6 mg/mL
30° C., 24 hours
  M4N: 37.4 mg/mL
45° C., 2 hours
  M4N: 40.4 mg/mL
45° C., 6 hours
  M4N: 39.8 mg/mL
45° C., 24 hours
  M4N: 40.6 mg/mL
60° C., 2 hours
  M4N: 39.1 mg/mL
60° C., 6 hours
  M4N: 39.2 mg/mL
60° C., 24 hours
  M4N: 39.2 mg/mL
